Test results: patent publication US10722591B2, “Cleavable conjugates of TLR7/8 agonist compounds, methods for preparation, and uses thereof” (Dynavax Technologies Corporation, priority 2017, dated 2020)

Columns and labels:
CT26 colon carcinoma [1] = assay: Tumor growth inhibition in combination with anti-PD-1, two contralateral CT26 tumors (Example B6); format: in vivo, Balb/c mice; conditions: 500 ng IMDQ equivalent intratumorally in combination with anti-PD-1 250 μg intraperitoneally
Protocol: All in vivo procedures were conducted in accordance with approved Institutional Animal Care and Use Committee (IACUC) protocols. The animals were housed in a facility that is accredited by the Association for Accreditation and Laboratory Animal Care (AALAC, Frederick, Md.). Wild-type female Balb/c mice (15-20 g) were obtained from Envigo (Hayward, Calif.) and acclimated for 2-3 days prior to use. On experimental day 0, mice were anesthetized with 1% isoflurane, and 80,000 CT26 tumor cells in 200 uL of RMPI-1640 culture media plus 2.5% fetal bovine serum were injected subcutaneously in both the right and left flanks. Tumors (left and right) were allowed to grow until day 9, when the right and left flank tumor sizes had reached approximately 35 mm^3, at which point mice were injected intraperitoneally with 250 μg of anti-PD-1 antibody formulated in PBS or a PBS vehicle control. The anti-PD-1 treatments were repeated on experimental days 12, 16, 20, 23, and 28. On experimental day 15, when the right (injected) and left (distal) flank tumors had reached approximately 100 mm^3, mice were randomized into treatment groups with 10 mice per group. […] Tumor sizes were measured twice weekly from days 15 through day 30 with calipers, with tumor volumes calculated using the formula: length, multiplied by width, multiplied by width, divided by 2.

[2] = system: interferon-related genes (TLR7-mediated gene induction); assay: Gene expression in popliteal lymph nodes after single subcutaneous footpad injection; format: in vivo, BALB/c mice; conditions: 0.04 μg
Protocol: (§1) Blood was drawn after 2 hours, serum samples were prepared and the IL-6, IL-12p40, and TNFα protein levels were measured by ELISA. Lower limit of quantification (LLOQ) for each of these assays was 31.3 pg/mL, and the dotted lines on graphs represent the LLOQ multiplied by serum dilution factor. Popliteal lymph nodes (draining node for the site of injection) were removed after 6 hours and stored in RNAlater (Qiagen, Hilden Del.) prior to tissue homogenization and isolation of RNA for gene expression analysis by TaqMan® using a StepOnePlus Real Time PCR system (Applied Biosystems, Foster City Calif.). Gene expression data are expressed as fold increase in gene induction relative to PBS control (mean±SEM).

[3] = system: IL-6, IL-12p40, and TNFα protein levels; assay: Serum cytokine levels by ELISA after single subcutaneous footpad injection; format: in vivo, BALB/c mice; conditions: 2 hours after footpad injection
Protocol: as §1

CD86 = assay: APC maturation marker CD86 by flow cytometry after subcutaneous footpad injection; format: in vivo, BALB/c mice; conditions: 1.8 μg IMDQ molar equivalents, both hind footpads, 24 hours
Protocol: Popliteal lymph nodes and spleens were harvested after 24 hours, and single cell suspensions were prepared for subsequent staining and analysis by flow cytometry using antibodies to cell surface markers to identify different APCs and lymphocyte cell populations.

CT26 colon carcinoma [4] = assay: Tumor growth inhibition, weekly intratumoral doses, CT26 tumor bearing mice (Example B3); format: in vivo, Balb/c mice; conditions: intratumoral on days 8, 16, 23; 1 μg molar equivalent of IMDQ (64-53a, 64-54a) or 0.63 ug (64-10a); to day 27
Protocol: The effect of weekly intratumoral doses of Compound No. 64-53a, Compound No. 64-54a, Compound No. 64-10a, or a PBS vehicle control on tumor growth inhibition was assessed in syngeneic CT26 colon carcinoma-bearing Balb/c mice. Compound No. 64-53a differs from Compound No. 64-53 in that it contains a monomethyl group adjacent to the disulfide cleavable linker rather than the disulfide variant. Compound No. 64-54a differs from Compound No. 64-54 in that it contains a (PEG)4 to the N-terminus of the peptide cleavable linker rather than a (PEG)12 variant. […] Compound No. 64-10a is the free amine (i.e., unconjugated) form of Compound No. 64-10, the structure of which is shown in Table 1. All in vivo procedures were conducted in accordance with approved Institutional Animal Care and Use Committee (IACUC) protocols. The animals were housed in a facility that is accredited by the Association for Accreditation and Laboratory Animal Care (AALAC, Frederick, Md.). […]
(§2) On day 0, mice were anesthetized with 1% isoflurane and 80,000 CT26 tumor cells in 200 μL of RMPI-1640 culture media plus 2.5% FBS were injected subcutaneously in the right flank. […] Tumor sizes were measured twice weekly from day 7 through day 27 with calipers, with tumor volumes calculated using the following formula: length, multiplied by width, multiplied by width, divided by 2.

TLR7 = target: T1, TLR7 (Homo sapiens, UniProt Q9NYK1); assay: TLR7 in vitro potency; format: cell-based
T1 sequence (Q9NYK1 27-1049): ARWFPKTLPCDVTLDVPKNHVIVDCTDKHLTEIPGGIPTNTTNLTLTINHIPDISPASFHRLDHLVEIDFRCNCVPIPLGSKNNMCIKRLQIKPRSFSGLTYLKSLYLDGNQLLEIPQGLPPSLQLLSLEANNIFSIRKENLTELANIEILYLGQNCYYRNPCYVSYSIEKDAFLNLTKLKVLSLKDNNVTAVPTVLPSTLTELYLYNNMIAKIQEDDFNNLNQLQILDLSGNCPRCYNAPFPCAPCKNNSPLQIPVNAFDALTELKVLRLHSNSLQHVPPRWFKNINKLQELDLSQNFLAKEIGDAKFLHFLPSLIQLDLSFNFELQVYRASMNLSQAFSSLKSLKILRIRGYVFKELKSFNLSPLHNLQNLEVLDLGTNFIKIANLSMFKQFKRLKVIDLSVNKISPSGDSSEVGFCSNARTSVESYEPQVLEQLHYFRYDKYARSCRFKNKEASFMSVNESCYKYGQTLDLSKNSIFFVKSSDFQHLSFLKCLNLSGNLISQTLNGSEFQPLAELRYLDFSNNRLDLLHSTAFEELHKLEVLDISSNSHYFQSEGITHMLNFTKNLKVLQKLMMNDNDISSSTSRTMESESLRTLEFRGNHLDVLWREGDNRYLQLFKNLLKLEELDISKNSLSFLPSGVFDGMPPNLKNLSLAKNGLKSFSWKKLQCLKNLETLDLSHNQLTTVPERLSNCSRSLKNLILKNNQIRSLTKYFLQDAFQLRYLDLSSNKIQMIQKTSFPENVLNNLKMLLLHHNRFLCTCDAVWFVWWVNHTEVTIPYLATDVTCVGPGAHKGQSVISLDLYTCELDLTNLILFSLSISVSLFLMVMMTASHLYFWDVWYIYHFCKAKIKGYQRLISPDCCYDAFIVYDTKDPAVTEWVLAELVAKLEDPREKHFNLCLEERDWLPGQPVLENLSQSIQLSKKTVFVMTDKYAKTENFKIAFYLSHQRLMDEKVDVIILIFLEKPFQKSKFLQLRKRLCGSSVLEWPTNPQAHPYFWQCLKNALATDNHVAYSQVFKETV

CT26 colon carcinoma [5] = assay: Tumor growth inhibition, weekly intratumoral doses, CT26 tumor bearing mice (Example B4); format: in vivo, Balb/c mice; conditions: 500 ng IMDQ equivalent mass intratumorally on days 9, 16, 23 and 28; single flank tumor
Protocol: Compound No. 64-70 is a non-cleavable variant. All in vivo procedures were conducted in accordance with approved Institutional Animal Care and Use Committee (IACUC) protocols. The animals were housed in a facility that is accredited by the Association for Accreditation and Laboratory Animal Care (AALAC, Frederick, Md.). Wild-type female Balb/c mice (15-20 g) were obtained from Envigo (Hayward, Calif.) and acclimated for 2-3 days prior to use.
as §2, with “On experimental” for “On”, “flank. Tumors were allowed to grow until they were ˜50 mm^3, at which point animals were assigned to groups, 8 mice per group, to begin treatment.” for “flank.”, “30” for “27”

Q: With CCCCc1nc2c(N)nc3ccccc3c2n1Cc1ccc(CN)cc1 [IMDQ, 1-(4-aminomethylbenzyl)-2-butyl-1H-imidazo[4,5-c]quinolin-4-amine] as the molecule, how does the “tumor growth control in the injected tumor” value (CT26 colon carcinoma [1]) read?
A: The value was “comparable improvements in tumor growth control over either agent administered individually”.

Q: What about the “tumor growth control in the uninjected tumor” value (CT26 colon carcinoma [1]) of the same molecule?
A: Its value is “comparable improvements in tumor growth control over either agent administered individually”.

Q: And the “gene expression response in popliteal lymph nodes at the lowest dose” value [2]?
A: The value was “induced gene expression”.

Q: What about the “serum IL-12p40” value ([3]; 1 μg) of the same molecule?
A: The value was “levels above background”.

Q: What about the “serum IL-6” value ([3]; 5 μg) of the same molecule?
A: The value was “elevated levels”.

Q: And the “serum IL-12p40” value ([3]; 5 μg)?
A: Its value is “elevated levels”.

Q: What about the “serum TNFα” value ([3]; 5 μg) of the same molecule?
A: Its value is “elevated levels”.

Q: And the “expression level of APC maturation marker CD86 in popliteal lymph nodes” value (CD86)?
A: The value was “induced activation/maturation of cells”.

Q: And the “expression level of CD86 on APCs in the spleen” value (CD86)?
A: Its value is “comparable”.

Q: For CCCCCCCCCCCCCC(=O)NCc1ccc(Cn2c(CCCC)nc3c(N)nc4ccccc4c32)cc1 [Compound No. 64-10a, N-(4-((4-amino-2-butyl-1H-imidazo[4,5-c]quinolin-1-yl)methyl)benzyl)tetradecanamide], which “CT26 tumor growth control compared to the vehicle control” value (CT26 colon carcinoma [4]) is on record?
A: Its value is “significant CT26 tumor growth control”.

Q: And the EC50 (TLR7)?
A: The EC50 was 2 nM.

Q: What about the “in vitro and in vivo TLR7 agonist potency relative to IMDQ” value (TLR7; data not shown) of the same molecule?
A: The value was “equal in vitro and in vivo TLR7 agonist potency to IMDQ”.

Q: Which “CT26 tumor growth inhibition” value (CT26 colon carcinoma [5]) does the source give for CCCCc1nc2c(N)nc3ccccc3c2n1Cc1ccc(CNC(=O)OCc2ccc(SCCNC(=O)CN=[N+]=[N-])cc2)cc1 [Compound No. 64-70] here?
A: Its value is “no CT26 tumor growth inhibition”.
